The text below walks through data of paper PMC11173485, “Connecting GSK-3β Inhibitory Activity with IKK-β or ROCK-1 Inhibition to Target Tau Aggregation and Neuroinflammation in Alzheimer’s Disease—Discovery, In Vitro and In Cellulo Activity of Thiazole-Based Inhibitors” (Molecules, 2024).

For orientation: Ki means a dissociation constant, usually derived from enzyme kinetics or from competition with a known ligand. Usually inhibition stands for the drop in the measured response relative to a control, in per cent.

Assay type in all cases: biochemical
Experiment [1] has as its target T1, GSK-3β (Homo sapiens, UniProt P49841). The experiment in a line: Kinetic studies of GSK-3β inhibition (ADP-Glo, varying ATP). Also on record: purchased Promega. As for the experimental part:
Non-linear regression analysis of the Michaelis–Menten equation was conducted on ATP-velocity curves to calculate the Vmax and Km parameters. […] Lineweaver–Burk and Cornish–Bowden plots, included in the Supporting Information (Figure S1A,B), further illustrate this observation. […] (refer to Supporting Information, Figure S2). The negative Ki value was directly derived from the plot at the x-axis intersection.
Kinetic studies were performed using the GSK-3β Kinase Enzyme System (Promega; Madison, WI, USA) and ADP-Glo™ bioluminescent assay (Promega; Madison, WI, USA), following the manufacturer’s instructions. The general workflow is described in Section 6.9. Evaluation of In Vitro Inhibitory Potencies towards Kinases GSK-3β, IKK-β, and ROCK-1. […] The substrate concentration was kept constant. The luminescence was measured using the EnSpire multimode microplate reader (PerkinElmer, Waltham, MA, USA). Each data point was collected in triplicate. Vmax and Km values of the Michaelis–Menten kinetics were calculated using nonlinear regression from ATP–velocity curves. Lineweaver–Burk and Cornish–Bowden plots were obtained via linear regression in GraphPad Prism (GraphPad Prism 9; GraphPad Software, San Diego, CA, USA). The Ki value of inhibitor 62 was determined by replotting the Lineweaver–Burk plots data (Km versus [I]).
Kinetic studies of GSK-3β inhibition by compound 62
type of GSK-3β inhibition by compound 62; V = initial velocity rate, S = ATP concentration,
I = inhibitor concentration.
Figure S2. Determination of Ki value for ATP-competitive inhibitor 62. Data replot from
= Michaelis-Menten constant.
(also on this page, place not known: K i -15 -10 -5 5 10 15 -100 -50 50 100 Cmpd 62_Ki determination I [nM] Km -Ki) […]
(In ADP-Glo the light output rises with the ADP produced.)

Experiment [2] concerns the target T1, GSK-3β. The experiment in a line: Eurofins KinaseProfiler radiometric selectivity screen. Further details: purchased Eurofins Discovery (KinaseProfiler service). The procedure:
(§1) Compound 62 is an ATP-competitive inhibitor of GSK-3β, raising concerns about selectivity. Therefore, we performed a selectivity screening at Eurofins Discovery on the CMGC group of kinases, which included the CDK, DYRK, MAPK, and GSK families (Figure 3 and Table S1 in the SI).
(§2) Selectivity studies for compound 62
(§3) Selectivity studies were performed at Eurofins in Kinase Enzymatic Radiometric [Km ATP]
(§4) Kinase Profiler Lead Hunter Assay. The percentage of enzymatic activity was measured at 1
(§5) µM of compound 62 in duplicate for 17 selected kinases.
(§6) Table S1. Inhibitory activity of compound 62 against panel of selected CMGC kinases.
(§7) kinase % of enzyme activity at 1 μM of compound 62±SD*
(§8) *Where n = 2, the value reported here is actually range / √ 2 .

Experiment [3] addresses T2, CDK1/cyclinB (Homo sapiens, UniProt P06493).
T2 construct: purchased Eurofins Discovery (KinaseProfiler service)
The experiment is described as above. The conditions noted are these: Km ATP, remaining enzyme activity, n = 2. As for the experimental part:
as §1, §2, §3, §4, §5, §6, §7, §8

Experiment [4] concerns the target T3, JNK2α2 (Homo sapiens, UniProt P45984).
T3 construct: purchased Eurofins Discovery (KinaseProfiler service)
Described as above. The conditions noted are these: Km ATP, remaining enzyme activity, n = 2. The procedure:
as §1, §2, §3, §4, §5, §6, §7, §8

Experiment [5] has as its target T4, DYRK1A (Homo sapiens, UniProt Q13627).
T4 construct: purchased Eurofins Discovery (KinaseProfiler service)
The experiment is described as above. The conditions noted are these: Km ATP, remaining enzyme activity, n = 2. The procedure: as §1, §2, §3, §4, §5, §6, §7, §8

In experiment [6] the target is T5, CDK2/cyclinA (Homo sapiens, UniProt P24941).
T5 construct: purchased Eurofins Discovery (KinaseProfiler service)
The experiment is described as above. The following applies: Km ATP, remaining enzyme activity, n = 2. The procedure: as §1, §2, §3, §4, §5, §6, §7, §8

Experiment [7] has as its target T6, CDK9/cyclin T1 (Homo sapiens, UniProt P50750).
T6 construct: purchased Eurofins Discovery (KinaseProfiler service)
The description is as above. The following applies: Km ATP, remaining enzyme activity, n = 2. As for the experimental part: as §1, §2, §3, §4, §5, §6, §7, §8

Experiment [8] deals with T7, CDK6/cyclinD3 (Homo sapiens, UniProt Q00534).
T7 construct: purchased Eurofins Discovery (KinaseProfiler service)
Described as above. The conditions noted are these: Km ATP, remaining enzyme activity, n = 2. As for the experimental part: as §1, §2, §3, §4, §5, §6, §7, §8

Experiment [9] has as its target T8, SAPK2a(T106M) (Homo sapiens, UniProt Q16539, T106M).
T8 construct: purchased Eurofins Discovery (KinaseProfiler service)
The experiment is described as above. The following applies: Km ATP, remaining enzyme activity, n = 2. As for the experimental part:
as §1, §2, §3, §4, §5, §6, §7, §8

The target in experiment [10] is T9, MAPK2 (Homo sapiens, UniProt P28482).
T9 construct: purchased Eurofins Discovery (KinaseProfiler service)
Described as above. The following applies: Km ATP, remaining enzyme activity, n = 2. The procedure:
as §1, §2, §3, §4, §5, §6, §7, §8

Experiment [11] has as its target T10, CDK4/cyclinD3 (Homo sapiens, UniProt P11802).
T10 construct: purchased Eurofins Discovery (KinaseProfiler service)
The description is as above. The following applies: Km ATP, remaining enzyme activity, n = 2. As for the experimental part: as §1, §2, §3, §4, §5, §6, §7, §8

In experiment [12] the target is T11, CDK7/cyclinH/ MAT1 (Homo sapiens, UniProt P50613).
T11 construct: purchased Eurofins Discovery (KinaseProfiler service)
Described as above. The conditions noted are these: Km ATP, remaining enzyme activity, n = 2. The procedure: as §1, §2, §3, §4, §5, §6, §7, §8

The target in experiment [13] is T12, GSK-3α (Homo sapiens, UniProt P49840).
T12 construct: purchased Eurofins Discovery (KinaseProfiler service)
The description is as above. The following applies: Km ATP, remaining enzyme activity, n = 2. As for the experimental part: as §1, §2, §3, §4, §5, §6, §7, §8

Experiment [14] addresses T13, MAPK1 (Homo sapiens, UniProt P27361).
T13 construct: purchased Eurofins Discovery (KinaseProfiler service)
The description is as above. The conditions noted are these: Km ATP, remaining enzyme activity, n = 2. As for the experimental part: as §1, §2, §3, §4, §5, §6, §7, §8

The target of experiment [15] is T14, DYRK1B (Homo sapiens, UniProt Q9Y463).
T14 construct: purchased Eurofins Discovery (KinaseProfiler service)
Described as above. The conditions noted are these: Km ATP, remaining enzyme activity, n = 2. As for the experimental part:
as §1, §2, §3, §4, §5, §6, §7, §8

Experiment [16] deals with T15, SAPK3 (Homo sapiens, UniProt P53778).
T15 construct: purchased Eurofins Discovery (KinaseProfiler service)
Described as above. The conditions noted are these: Km ATP, remaining enzyme activity, n = 2. The procedure:
as §1, §2, §3, §4, §5, §6, §7, §8

The target in experiment [17] is T16, JNK3 (Homo sapiens, UniProt P53779).
T16 construct: purchased Eurofins Discovery (KinaseProfiler service)
The description is as above. The following applies: Km ATP, remaining enzyme activity, n = 2. The procedure:
as §1, §2, §3, §4, §5, §6, §7, §8

Experiment [18] has as its target T17, SAPK2b (Homo sapiens, UniProt Q15759).
T17 construct: purchased Eurofins Discovery (KinaseProfiler service)
The experiment is described as above. The following applies: Km ATP, remaining enzyme activity, n = 2. As for the experimental part:
as §1, §2, §3, §4, §5, §6, §7, §8

Where two headings read alike, the source gives them in different places.

T1 sequence (P49841 whole entry): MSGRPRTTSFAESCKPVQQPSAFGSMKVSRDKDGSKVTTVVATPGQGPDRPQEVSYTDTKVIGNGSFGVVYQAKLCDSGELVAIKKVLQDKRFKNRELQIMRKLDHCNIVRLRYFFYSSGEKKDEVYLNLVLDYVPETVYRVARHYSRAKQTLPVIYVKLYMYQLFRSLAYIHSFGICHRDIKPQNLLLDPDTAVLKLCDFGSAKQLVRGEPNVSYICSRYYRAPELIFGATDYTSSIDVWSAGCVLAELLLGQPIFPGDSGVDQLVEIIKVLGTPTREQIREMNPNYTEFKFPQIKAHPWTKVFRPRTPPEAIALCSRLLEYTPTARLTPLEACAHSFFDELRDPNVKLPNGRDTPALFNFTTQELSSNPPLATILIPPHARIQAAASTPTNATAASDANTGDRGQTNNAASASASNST
T7 sequence (Q00534 whole entry): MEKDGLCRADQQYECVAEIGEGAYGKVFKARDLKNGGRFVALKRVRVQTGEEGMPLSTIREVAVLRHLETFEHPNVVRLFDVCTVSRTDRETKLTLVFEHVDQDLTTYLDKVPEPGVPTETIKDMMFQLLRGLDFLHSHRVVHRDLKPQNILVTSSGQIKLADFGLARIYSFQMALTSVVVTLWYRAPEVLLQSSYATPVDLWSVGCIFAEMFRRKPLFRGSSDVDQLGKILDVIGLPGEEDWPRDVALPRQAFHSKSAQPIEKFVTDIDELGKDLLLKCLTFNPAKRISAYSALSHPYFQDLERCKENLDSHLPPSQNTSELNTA
T7 sequence (P30281 whole entry partner): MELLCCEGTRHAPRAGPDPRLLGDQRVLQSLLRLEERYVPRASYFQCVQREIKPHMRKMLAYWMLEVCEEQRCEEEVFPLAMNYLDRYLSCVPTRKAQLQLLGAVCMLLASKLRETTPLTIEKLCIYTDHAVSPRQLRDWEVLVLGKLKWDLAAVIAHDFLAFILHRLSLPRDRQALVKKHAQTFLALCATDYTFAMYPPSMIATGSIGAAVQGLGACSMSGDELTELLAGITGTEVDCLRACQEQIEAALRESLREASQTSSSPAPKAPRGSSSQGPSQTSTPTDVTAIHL
T6 sequence (P50750 whole entry): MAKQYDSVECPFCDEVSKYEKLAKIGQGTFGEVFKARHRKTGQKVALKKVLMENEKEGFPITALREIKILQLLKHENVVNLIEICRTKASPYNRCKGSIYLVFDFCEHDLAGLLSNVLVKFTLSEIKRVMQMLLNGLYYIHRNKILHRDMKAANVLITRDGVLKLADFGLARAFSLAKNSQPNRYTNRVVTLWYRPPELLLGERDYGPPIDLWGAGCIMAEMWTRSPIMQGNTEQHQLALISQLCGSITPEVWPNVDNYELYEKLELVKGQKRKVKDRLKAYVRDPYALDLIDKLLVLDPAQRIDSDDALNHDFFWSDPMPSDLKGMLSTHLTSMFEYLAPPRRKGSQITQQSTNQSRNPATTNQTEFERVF
T6 sequence (O60563 whole entry partner): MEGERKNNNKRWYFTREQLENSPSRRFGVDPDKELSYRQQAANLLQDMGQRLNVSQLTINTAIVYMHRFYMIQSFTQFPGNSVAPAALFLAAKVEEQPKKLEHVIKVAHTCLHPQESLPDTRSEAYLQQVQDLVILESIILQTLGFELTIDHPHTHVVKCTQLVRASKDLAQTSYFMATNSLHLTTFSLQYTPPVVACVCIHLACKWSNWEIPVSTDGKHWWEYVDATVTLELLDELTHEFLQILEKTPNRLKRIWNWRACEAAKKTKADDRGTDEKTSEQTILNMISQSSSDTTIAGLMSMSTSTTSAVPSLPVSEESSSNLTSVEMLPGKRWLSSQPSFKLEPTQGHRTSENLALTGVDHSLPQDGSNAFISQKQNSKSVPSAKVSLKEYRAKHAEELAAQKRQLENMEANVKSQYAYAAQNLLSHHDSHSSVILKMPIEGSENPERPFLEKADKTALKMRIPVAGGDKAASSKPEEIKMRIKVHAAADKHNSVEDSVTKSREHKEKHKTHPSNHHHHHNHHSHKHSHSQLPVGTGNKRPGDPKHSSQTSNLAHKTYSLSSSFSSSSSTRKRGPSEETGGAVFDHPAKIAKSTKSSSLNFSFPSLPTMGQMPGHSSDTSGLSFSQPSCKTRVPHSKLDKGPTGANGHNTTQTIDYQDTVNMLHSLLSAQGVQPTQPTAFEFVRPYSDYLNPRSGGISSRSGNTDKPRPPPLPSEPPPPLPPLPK
T17 sequence (Q15759 whole entry): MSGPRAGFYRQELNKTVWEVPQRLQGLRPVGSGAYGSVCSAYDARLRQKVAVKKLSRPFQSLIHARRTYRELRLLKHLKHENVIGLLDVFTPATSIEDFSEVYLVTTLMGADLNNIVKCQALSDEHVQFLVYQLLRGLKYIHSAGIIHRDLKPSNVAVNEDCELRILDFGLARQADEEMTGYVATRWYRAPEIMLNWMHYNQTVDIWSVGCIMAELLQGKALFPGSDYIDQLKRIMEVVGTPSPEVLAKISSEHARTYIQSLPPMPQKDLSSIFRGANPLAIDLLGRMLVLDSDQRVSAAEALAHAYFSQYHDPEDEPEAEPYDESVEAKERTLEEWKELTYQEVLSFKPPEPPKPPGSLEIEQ
T2 sequence (P06493 whole entry): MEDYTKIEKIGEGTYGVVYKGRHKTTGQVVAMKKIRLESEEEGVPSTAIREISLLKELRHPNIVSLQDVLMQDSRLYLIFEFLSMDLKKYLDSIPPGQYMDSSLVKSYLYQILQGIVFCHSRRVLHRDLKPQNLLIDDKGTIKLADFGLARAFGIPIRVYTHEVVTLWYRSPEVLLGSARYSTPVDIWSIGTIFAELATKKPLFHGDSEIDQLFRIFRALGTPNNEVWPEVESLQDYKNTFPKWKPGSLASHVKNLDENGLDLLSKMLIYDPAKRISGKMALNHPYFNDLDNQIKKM
T2 sequence (P14635 whole entry partner): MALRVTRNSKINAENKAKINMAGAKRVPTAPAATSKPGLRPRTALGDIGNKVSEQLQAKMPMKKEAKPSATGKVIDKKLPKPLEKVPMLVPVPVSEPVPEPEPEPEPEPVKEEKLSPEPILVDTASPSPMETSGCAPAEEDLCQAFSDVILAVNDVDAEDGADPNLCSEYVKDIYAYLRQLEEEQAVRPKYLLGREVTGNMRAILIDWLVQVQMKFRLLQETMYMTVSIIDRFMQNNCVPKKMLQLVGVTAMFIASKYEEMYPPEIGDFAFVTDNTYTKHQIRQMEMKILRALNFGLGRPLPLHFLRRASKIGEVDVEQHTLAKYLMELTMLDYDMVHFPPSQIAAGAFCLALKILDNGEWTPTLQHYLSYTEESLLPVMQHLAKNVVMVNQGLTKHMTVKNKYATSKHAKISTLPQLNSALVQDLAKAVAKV
T8 sequence (Q16539 whole entry T106M): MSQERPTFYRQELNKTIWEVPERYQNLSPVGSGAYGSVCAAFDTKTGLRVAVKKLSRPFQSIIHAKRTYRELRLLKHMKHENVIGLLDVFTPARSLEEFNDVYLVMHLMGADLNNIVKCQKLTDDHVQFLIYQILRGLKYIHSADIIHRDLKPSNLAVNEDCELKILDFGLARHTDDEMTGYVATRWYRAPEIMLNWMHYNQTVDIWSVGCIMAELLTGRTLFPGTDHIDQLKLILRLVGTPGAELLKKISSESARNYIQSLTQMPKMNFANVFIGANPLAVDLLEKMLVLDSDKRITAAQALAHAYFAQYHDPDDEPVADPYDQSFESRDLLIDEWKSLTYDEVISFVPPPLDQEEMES
T9 sequence (P28482 whole entry): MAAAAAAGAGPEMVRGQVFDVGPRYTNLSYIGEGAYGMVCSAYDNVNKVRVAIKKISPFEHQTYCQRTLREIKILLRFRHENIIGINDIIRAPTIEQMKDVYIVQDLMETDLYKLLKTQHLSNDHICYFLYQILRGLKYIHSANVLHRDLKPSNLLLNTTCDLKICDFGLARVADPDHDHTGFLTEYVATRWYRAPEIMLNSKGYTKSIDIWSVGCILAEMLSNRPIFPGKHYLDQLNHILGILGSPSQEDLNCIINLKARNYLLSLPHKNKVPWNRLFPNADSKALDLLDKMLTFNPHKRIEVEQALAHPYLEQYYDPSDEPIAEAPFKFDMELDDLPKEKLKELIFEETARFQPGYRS
T16 sequence (P53779 whole entry): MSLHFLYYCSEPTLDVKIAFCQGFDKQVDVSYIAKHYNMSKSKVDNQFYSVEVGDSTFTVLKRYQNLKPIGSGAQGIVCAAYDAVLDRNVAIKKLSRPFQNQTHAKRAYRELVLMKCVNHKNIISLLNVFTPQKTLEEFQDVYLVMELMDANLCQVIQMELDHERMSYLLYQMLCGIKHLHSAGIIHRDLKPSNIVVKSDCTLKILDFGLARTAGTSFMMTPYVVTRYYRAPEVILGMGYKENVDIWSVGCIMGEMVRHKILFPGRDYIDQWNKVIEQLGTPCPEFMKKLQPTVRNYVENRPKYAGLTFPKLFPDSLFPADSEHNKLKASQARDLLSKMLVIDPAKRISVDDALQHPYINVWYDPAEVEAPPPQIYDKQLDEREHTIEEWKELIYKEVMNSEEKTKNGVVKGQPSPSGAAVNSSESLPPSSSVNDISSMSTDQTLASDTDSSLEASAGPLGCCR
T13 sequence (P27361 whole entry): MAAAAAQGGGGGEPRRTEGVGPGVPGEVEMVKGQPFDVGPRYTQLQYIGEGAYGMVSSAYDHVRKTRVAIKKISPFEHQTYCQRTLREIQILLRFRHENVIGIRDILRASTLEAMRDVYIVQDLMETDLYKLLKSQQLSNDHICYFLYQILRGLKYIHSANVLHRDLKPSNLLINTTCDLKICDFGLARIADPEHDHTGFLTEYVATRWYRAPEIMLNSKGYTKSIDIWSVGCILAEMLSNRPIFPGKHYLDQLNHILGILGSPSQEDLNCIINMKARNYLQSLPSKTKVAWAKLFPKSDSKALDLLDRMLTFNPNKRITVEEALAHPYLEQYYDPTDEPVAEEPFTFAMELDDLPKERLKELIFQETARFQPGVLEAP

As to `O=C1NC2(CCOC2)Nc2cc(-c3ccnc(NC(=O)C4CC4)c3)sc21` (stereo not drawn) [Compound 62, N-(4-(4′-Oxo-3′,4,4′,5-tetrahydro-1′H,2H-spiro[furan-3,2′-thieno [3,2-d]pyrimidin]-6′-yl)pyridin-2-yl)cyclopropanecarboxamide], in experiment [1] (ATP 10-100 μM, inhibitor 0-100 nM, Km rises, Vmax preserved), the “type of GSK-3β inhibition” value is given as “ATP-competitive”. The Ki in [1] (replot from Lineweaver-Burk plots, unit inferred, read-out: Determined Ki (Figure S2)) was 2.22 nM; in experiment [1] (replot of Lineweaver–Burk data, Km versus [I], read-out: Ki GSK-3β), 2 nM. Moreover, the “% of enzyme activity at 1 μM of compound 62±SD, GSK-3β” value in experiment [2] (Km ATP, remaining enzyme activity, n = 2) was 1±1%. Also, in experiment [2] (text says GSK family), at 1 µM the inhibition was 99%. Further, the “% of enzyme activity at 1 μM of compound 62±SD, CDK1/cyclinB” value in experiment [3] was determined as 33±1%. Further, the “% of enzyme activity at 1 μM of compound 62±SD, JNK2α2” value in experiment [4] was 89±14%. For the same molecule, in experiment [5], the “% of enzyme activity at 1 μM of compound 62±SD, DYRK1A” value is reported as 1±1%. Besides, in experiment [6], the “% of enzyme activity at 1 μM of compound 62±SD, CDK2/cyclinA” value was found to be 26±2%. The “% of enzyme activity at 1 μM of compound 62±SD, CDK9/cyclin T1” value in experiment [7] turned out to be 16±2%. Also, in [8], the “% of enzyme activity at 1 μM of compound 62±SD, CDK6/cyclinD3” value turned out to be 88±0%. For the same molecule, the “% of enzyme activity at 1 μM of compound 62±SD, SAPK2a(T106M)” value in experiment [9] came out at 80±1%. Also, the “% of enzyme activity at 1 μM of compound 62±SD, MAPK2” value in [10] is 73±7%. The “% of enzyme activity at 1 μM of compound 62±SD, CDK4/cyclinD3” value in experiment [11] was determined as 83±5%. For the same molecule, the “% of enzyme activity at 1 μM of compound 62±SD, CDK7/cyclinH/ MAT1” value in experiment [12] is 57±1%. The “% of enzyme activity at 1 μM of compound 62±SD, GSK-3α” value in experiment [13] is listed as 0±0%. Moreover, the “% of enzyme activity at 1 μM of compound 62±SD, MAPK1” value in experiment [14] was 37±2%. For the same molecule, in experiment [15], the “% of enzyme activity at 1 μM of compound 62±SD, DYRK1B” value is on record as 1±1%. In addition, the “% of enzyme activity at 1 μM of compound 62±SD, SAPK3” value in experiment [16] is recorded as 22±3%. In addition, the “% of enzyme activity at 1 μM of compound 62±SD, JNK3” value in experiment [17] is given as 21±2%. For the same molecule, the “% of enzyme activity at 1 μM of compound 62±SD, SAPK2b” value in experiment [18] is reported as 98±1%.
